Key:
Assay type in all cases: in vivo
[1] = test system: von Bezold-Jarisch reflex evoked by 5HT; assay: Antagonism of the von Bezold-Jarisch reflex evoked by 5HT in the anaesthetised rat; settings: iv, anaesthetised male rats, i.v., 5-HT 6-20 μg/kg i.v., heart rate, read-out: ED50 (reduction of the 5HT-evoked response to 50% of the control response)
Protocol: 1. Antagonism of the von Bezold-Jarisch reflex
The compounds were evaluated for antagonism of the von Bezold-Jarisch reflex evoked by 5HT in the anaesthetised rat according to the following method:
Male rats 250-350 g, were anaesthetised with urethane (1.25 g/kg intraperitoneally) and blood pressure and heart rate recorded as described by Fozard J. R. et al., J. Cardiovasc. Pharmacol. 2, 229-245 (1980). A submaximal dose of 5-HT (6-20 μg/kg) was given repeatedly by the intravenous route and changes in heart rate quantified. Test Compounds were given intravenously and the concentration required to reduce the 5HT-evoked response to 50% of the control response (ED50) was then determined.

[2] = test system: arrhythmias after coronary ligation; assay: Antiarrhythmic Activity, dog coronary ligation model; settings: for reduction of ectopic beats on day 2 (max. effects) / antagonism of arrhythmias on day 2 (max. effects): 48 h after coronary ligation; for reduction of ectopic beats on day 1 (max. effects) / antagonism of arrhythmias on day 2 (max. effects): 2. dog
Protocol: 4. Antiarrhythmic Activity
The compound of Example 9 was tested for antiarrhythmic activity in the dog coronary ligation model (method: Harris, A., Circulation Res. 1, 1318-1328, 1950).

[3] = test system: emetic response (cisplatin); assay: Inhibition of Chemotherapy Induced Nausea and Vomiting (cisplatin, ferret); settings: administered twice, cisplatin 10 mg/kg i.v., 5 hours
From the text: 2. Inhibition of Chemotherapy Induced Nausea and Vomiting
Adult male ferrets (initial body weight 1.3-1.8 kg) were individually housed, fed once daily (200 g Chum Puppy Food plus 50 g Lab Diet A) and were supplied with water ad libitum. Additionally, each animal was given 1/2 pint of milk daily during an acclimatization period.
To facilitate intravenous administration of drugs, a chronic indwelling catheter was surgically implanted into the jugular vein using a modification of the technique described by Florczyk and Schurig, 1981 (Pharmacol. Biochem. Behav., 14, 255-257). Prior to surgery each animal was sedated with ketamine hydrochloride (40 mg/animal intramuscularly) and anaesthetised with a halothane-N2 O--O2 mixture. A four day recovery period was allowed before commencement of an experiment.
For each group of animals, a preliminary study was carried out to establish an intravenous dose level of cisplatin which would give a consistent and reproducible emetic response. The appropriate dose of test compound was administered intravenously twice to each animal; 30 minutes before and 45 minutes after dosing with cisplatin. Running controls received vehicle and cisplatin only.
A single emetic response commenced when an animal assumed a characterrc posture with retching and was concluded when either vomitus was expelled or was present in the mouth as evidenced by a chewing movement.
All solutions were prepared in water for injection B. P. Cisplatin was prepared from vials of Neoplatin for injection (Mead Johnson; dose volume of […]).

[4] = test system: Radiation Induced Nausea and Vomiting; assay: Inhibition of Radiation Induced Nausea and Vomiting (X-ray, ferret); settings: for No. of animals completely protected/No. of animals used: 2 to 4 minutes before irradiation; for Latency period, Group Mean (±s.e.m.): taken as 120 minutes in animals completely protected, vehicle 19.4 (±1.1); for No. of emetic episodes, Group Mean (±s.e.m.): vehicle 28.8 (±1.3)
From the text: 3. Inhibition of Radiation Induced Nausea and Vomiting.
Ferrets with surgically implanted indwelling venous cannulae were restrained in a purposely constructed perspex box, and exposed to ionising radiation from an X-ray source. The X-ray source (Machlett, Model OEG-50, Tungsten Anode) was approximately 25 cm from the upper surface of the animal, and was operated at 50 Kv and 20 mA through a 1 mm beryllium window and 0.18 mm aluminium filtration. The whole body of each animal was irradiated for 10.4 minutes at a dose rate of 300 rad/minute. At the completion of irradiation animals were put back in their pens and observed for at least 120 minutes. The time from the start of irradiation to the first emetio episode (latency period), and the number of emetic episodes were recorded. […] The test compound was injected intravenously 2 to 4 minutes before the start of irradiation.

COc1cc(N)c(Cl)cc1C(=O)NC1CCN2CCCC1C2 (racemic) [Example 9, (±)4-amino-5-chloro-2-methoxy-N-(4[1-azabicyclo-3,3,1]-nonyl])-benzamide]
ED50 [1]: 3.3 µg/kg
effect on day 1-arrhythmias (max. effects) ([2]; 1. dog, 24 h after coronary ligation, 0.5-3.0 mg/kg): no effect
reduction of ectopic beats on day 2 (max. effects) ([2]; 1. dog, 2.0 mg/kg): 41%
reduction of ectopic beats on day 2 (max. effects) ([2]; 1. dog, 3.0 mg/kg): 76%
reduction of ectopic beats on day 1 (max. effects) ([2]; 24 h after coronary ligation, 20 mg/kg (so in the source)): 69%
reduction of ectopic beats on day 1 (max. effects) ([2]; 24 h after coronary ligation, 1,0 mg/kg): 63%
reduction of ectopic beats on day 1 (max. effects) ([2]; 24 h after coronary ligation, 3,0 mg/kg): 82%
antagonism of arrhythmias on day 2 (max. effects) ([2]; 0.5 mg/kg): 89%
antagonism of arrhythmias on day 2 (max. effects) ([2]; 1.0 mg/kg): 100%
No. of animals completely protected/No. of animals used ([3]; 0.65 mg/kg i.v.): 1/6
No. of animals completely protected/No. of animals used ([3]; 1.25 mg/kg i.v.): 4/6
No. of animals completely protected/No. of animals used ([3]; 2.5 mg/kg i.v.): 3/6
No. of animals completely protected/No. of animals used ([4]; 0.25 mg/kg i.v.): 1/4
Latency period, Group Mean (±s.e.m.) ([4]; 0.25 mg/kg i.v., P < 0.05): 64.0 (±18.7)
No. of emetic episodes, Group Mean (±s.e.m.) ([4]; 0.25 mg/kg i.v., P < 0.05): 7.8 (±3.3)
No. of animals completely protected/No. of animals used ([4]; 1.25 mg/kg i.v.): 2/5
Latency period, Group Mean (±s.e.m.) ([4]; 1.25 mg/kg i.v., P < 0.01): 79.2 (±16.7)
No. of emetic episodes, Group Mean (±s.e.m.) ([4]; 1.25 mg/kg i.v., P < 0.01): 1.2 (±0.6)

Source: patent US4786643A, “Treatment of migraine, cluster headaches and trigeminal neuralgia” (Beecham Group p.l.c., priority 1985, dated 1988)
